Experimental data from patent publication US12466839B2, “Allosteric AKT inhibitors for use in the treatment of Hereditary Hemorrhagic Telangiectasia” (VADERIS THERAPEUTICS AG, priority 2020, dated 2025).

Columns and labels:
ETB = molecular target: T1, ETB (Homo sapiens, UniProt P24530); experiment: Millipore Drug Discovery Safety and Liability Panel; format: cell-based
T1 construct: purchased Millipore

BB2 = molecular target: T2, BB2 (Homo sapiens, UniProt P30550); experiment: as above; format: cell-based
T2 construct: purchased Millipore
T2 sequence (P30550 whole entry): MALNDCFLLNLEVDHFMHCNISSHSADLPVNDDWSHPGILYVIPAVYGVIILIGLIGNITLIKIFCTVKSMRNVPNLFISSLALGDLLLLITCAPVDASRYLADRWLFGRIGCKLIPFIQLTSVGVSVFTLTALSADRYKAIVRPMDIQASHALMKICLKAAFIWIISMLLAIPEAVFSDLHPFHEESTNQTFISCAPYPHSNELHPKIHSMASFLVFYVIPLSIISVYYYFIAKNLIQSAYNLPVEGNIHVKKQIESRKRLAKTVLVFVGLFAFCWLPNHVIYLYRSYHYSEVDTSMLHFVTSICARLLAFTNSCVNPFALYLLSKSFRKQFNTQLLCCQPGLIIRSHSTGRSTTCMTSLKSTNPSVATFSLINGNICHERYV

AKT1 = AKT1 (Homo sapiens, UniProt P31749); experiment: Panel of 450 kinases; format: biochemical
Chain of AKT1 (P31749 whole entry): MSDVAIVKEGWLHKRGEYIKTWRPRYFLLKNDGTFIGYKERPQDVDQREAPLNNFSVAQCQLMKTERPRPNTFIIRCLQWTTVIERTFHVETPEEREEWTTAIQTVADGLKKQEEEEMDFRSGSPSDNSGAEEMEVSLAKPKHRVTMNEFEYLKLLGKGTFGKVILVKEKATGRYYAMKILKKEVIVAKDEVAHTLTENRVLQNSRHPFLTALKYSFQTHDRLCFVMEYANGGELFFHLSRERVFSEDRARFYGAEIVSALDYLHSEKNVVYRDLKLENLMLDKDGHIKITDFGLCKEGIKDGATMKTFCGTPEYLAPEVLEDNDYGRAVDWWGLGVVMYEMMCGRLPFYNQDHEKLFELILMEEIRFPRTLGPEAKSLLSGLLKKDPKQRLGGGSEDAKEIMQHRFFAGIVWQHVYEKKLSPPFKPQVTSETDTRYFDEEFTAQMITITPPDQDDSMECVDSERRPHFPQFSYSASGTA

p42/p44 (MAPK pathway) = experiment: p42/p44 phosphorylation in primary lung endothelial cells (selectivity control); format: cell-based, mouse; settings: control for selectivity
Procedure: ECs were seeded in six-well plates and allowed to grow to 90% confluence. Cells were then washed with PBS and serum starved for six hours. […] Cells were washed with cold PBS and then lysed in RIPA Buffer (50 mM Tris-HCl pH 7.4, 150 mM NaCl, 1 mM Ethylene diamine tetra-acetic acid (EDTA), 1% Triton X-100, 0.1% Sodium Dodecyl Sulfate (SDS), 0.5% deoxycholate) containing protease and phosphatase inhibitors (PPC1010, Sigma-Aldrich).
Samples were boiled for 10 min and proteins were separated on 10% acrylamide gel and transferred onto nitrocellulose membrane before blocking with 5% BSA or 5% powdered milk/Tris-buffered saline/Tween and incubated with the following primary antibodies: rabbit anti-Phospho-Akt1 (Ser473) (44-621G, Invitrogen), rabbit anti-Akt1 (2938S, Cell Signaling), rabbit anti-PhosphoSmad1/5 (Ser463/465) (9516S, Cell Signaling), rabbit anti-Smad1 (6944S, Cell Signaling), mouse anti-Phospho-p44/42 MAPK (Thr202/Tyr204) (E10) (9106S, Cell signaling), rabbit p44/42 MAPK (Erk1/2) (9102S, Cell Signaling), goat anti-Endoglin (AF1097, R&D systems) and mouse anti-β-actin (A5441, Sigma-Aldrich). Detection was achieved using HRP anti-rabbit IgG or HRP anti-mouse IgG (W4011 or W4021 respectively, Promega) or HRP anti-goat IgG (HAF017, R&D systems) followed by scanning on BIO-RAD ChemiDoc imager. […]

EP3 = molecular target: T3, EP3 (Homo sapiens, UniProt P43115); experiment: Millipore Drug Discovery Safety and Liability Panel; format: cell-based
T3 construct: purchased Millipore
T3 sequence (P43115 whole entry): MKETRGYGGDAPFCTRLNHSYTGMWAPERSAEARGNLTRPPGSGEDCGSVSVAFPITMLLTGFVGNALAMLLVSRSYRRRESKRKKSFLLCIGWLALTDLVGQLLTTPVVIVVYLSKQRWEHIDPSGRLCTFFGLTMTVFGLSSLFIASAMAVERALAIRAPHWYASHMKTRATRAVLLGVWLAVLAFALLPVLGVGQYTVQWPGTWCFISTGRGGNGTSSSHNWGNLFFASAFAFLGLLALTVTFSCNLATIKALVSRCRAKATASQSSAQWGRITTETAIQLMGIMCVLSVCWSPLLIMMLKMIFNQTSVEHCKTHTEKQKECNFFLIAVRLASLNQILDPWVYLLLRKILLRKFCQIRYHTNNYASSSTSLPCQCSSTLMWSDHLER

5-HT2B = molecular target: T4, 5-HT2B (Homo sapiens, UniProt P41595); experiment: as above; format: cell-based
T4 construct: purchased Millipore
T4 sequence (P41595 whole entry, species assumed): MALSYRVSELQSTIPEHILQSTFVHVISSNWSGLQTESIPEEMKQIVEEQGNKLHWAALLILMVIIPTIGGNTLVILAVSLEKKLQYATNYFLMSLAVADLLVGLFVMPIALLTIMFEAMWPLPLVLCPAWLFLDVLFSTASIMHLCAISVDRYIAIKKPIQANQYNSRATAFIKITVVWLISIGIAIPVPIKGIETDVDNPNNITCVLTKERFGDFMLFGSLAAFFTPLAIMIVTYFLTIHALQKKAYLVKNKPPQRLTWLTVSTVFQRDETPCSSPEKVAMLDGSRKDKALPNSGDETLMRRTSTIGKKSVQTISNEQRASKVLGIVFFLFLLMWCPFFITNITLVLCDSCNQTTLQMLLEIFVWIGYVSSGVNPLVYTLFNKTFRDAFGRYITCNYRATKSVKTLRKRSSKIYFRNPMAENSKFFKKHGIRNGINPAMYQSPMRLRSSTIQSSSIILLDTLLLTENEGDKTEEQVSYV

[1] = read-out: ANTAGONIST mean % inhibition

T1 sequence (P24530 27-442, species assumed): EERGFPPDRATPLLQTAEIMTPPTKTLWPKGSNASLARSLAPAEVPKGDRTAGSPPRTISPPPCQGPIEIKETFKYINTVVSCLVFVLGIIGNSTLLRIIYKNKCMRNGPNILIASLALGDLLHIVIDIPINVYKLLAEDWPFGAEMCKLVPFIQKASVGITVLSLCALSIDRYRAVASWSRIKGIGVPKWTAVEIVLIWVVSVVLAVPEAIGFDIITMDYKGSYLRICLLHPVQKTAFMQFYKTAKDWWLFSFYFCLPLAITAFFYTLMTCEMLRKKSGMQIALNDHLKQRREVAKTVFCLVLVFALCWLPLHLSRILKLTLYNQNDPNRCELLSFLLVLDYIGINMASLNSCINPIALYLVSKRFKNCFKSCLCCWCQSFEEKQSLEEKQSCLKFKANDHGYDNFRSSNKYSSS

For `CCN1C(=O)COc2nc(-c3ccc(C4(N)CC(O)C4)cc3)c(-c3ccccc3)cc21.O=C(O)C(O)C(O)C(=O)O` [VAD044, 6-(4-(1-amino-3-hydroxycyclobutyl)phenyl)-1-ethyl-7-phenyl-1H-pyrido[2,3-b][1,4]oxazin-2(3H)-one L-tartrate], the activation at 10 µM (ETB; ETB, 10 μM, read-out: AGONIST mean % increase in activity) was -1.1%, the inhibition at 10 µM (ETB; [1]) was 2.9% and the activation at 10 µM (BB2; BB2, 10 μM, read-out: AGONIST mean % increase in activity) was -0.9%. For the same compound, the inhibition at 10 µM (BB2; [1]) was 0.9%, the inhibition at 10 µM (AKT1) was 89% and the “impact on the MAPK pathway (p42/p44 phosphorylation)” value (p42/p44 (MAPK pathway)) was “no impact on the MAPK pathway”. It also gave an activation at 10 µM (EP3; EP3, 10 μM, read-out: AGONIST mean % increase in activity) of -0.1%, an inhibition at 10 µM (EP3; [1]) of 9.2% and an activation at 10 µM (5-HT2B; read-out: AGONIST mean % increase in activity) of 3.7%. It also gave an inhibition at 10 µM (5-HT2B; [1]) of 7.6%.
